Measurements taken from US20130251731A1, “Tau Acetylation in the Pathogenesis of Alzheimers Disease and Other Related Tauopathies” (THE TRUSTEES OF THE UNIVERSITY OF PENNSYLVANIA, priority 2012, published 2013).
“Also recorded” adds a separate entry of the source.

What was measured:
[1] = test system: K18-PL acetylation in QBI-293 cells; experiment: Cell-based K18-PL acetylation assay in QBI-293 cells; details: C646 to block CBP/p300, 3MA-induced acetylation, overnight
[2] = test system: 2N4R-tau and tau-K18 auto-acetylation activity; experiment: Tau acetyltransferase inhibition studies (pre-incubation with cysteine blocking agents, tubulin or microtubules); assay type: biochemical; details: pre-incubated with 0.5 mM NEM or 4 mM IA
Protocol: FIG. 14, comprising FIGS. 14a-14c, is a series of images depicting the results of experiments showing that cysteine blocking agents inhibit tau-mediated acetyltransferase activity. […] FIG. 14c is an image showing bovine brain derived microtubule associated protein (MAP-rich) fractions containing all CNS tau isoforms that were evaluated in acetyltransferase assays in the presence of increased tubulin concentrations followed by immunoblotting with Ac-K280 and total tau (T46) antibodies.
Acetyltransferase assays using purified tau proteins were performed as previously described and subjected to autoradiography or immunoblotting using the following anti-tau antibodies: anti-tau polyclonal (Dako, A0024, 1:10,000), anti-acetyl lysine (Cell Signaling, #9441, 1:1000), anti-tau monoclonal (T46, 1:1000), anti-mouse tau (T49, 1:1000), anti-acetylated tau (Ac-K280, 1:1000), anti-acetylated tau (Ac-K369, 1:1000). For tau acetyltransferase inhibition studies, tau proteins were pre-incubated with 0.5 mM N-ethyl-maleimide (NEM), 4 mM iodoacetamide (IA), or increasing concentrations of either tubulin (5-10 μM) or pre-formed microtubules (5 μM). […] Reaction products were readily distinguished between 2N4R-tau (Mr ˜65 kD) and tau-K18 (Mr ˜15 kD) by immunoblotting using acetylated tau (Ac-K280) and total tau (E10) antibodies. […]

HDAC6 = HDAC6 siRNA in HEK-T40 cells, immunoblotting; assay type: cell-based, human
Protocol: FIG. 7, comprising FIG. 7A through FIG. 7D, depicts the results of experiments which illustrate the characterization of the ac-K280 site-specific acetylated tau antibody. FIG. 7A illustrates the results of an experiment where recombinant WT-K18 or ΔK280-K18 proteins (1 μg) were incubated in the presence or absence of acetyl-CoA or CBP as indicated and K280 acetylation was determined by immunoblotting using anti-ac-K280 and a polyclonal antibody raised to exon 10 of tau protein (E10). FIG. 7B illustrates the results of an experiment where QBI-293 cells were co-transfected with WT-T40 tau or ΔK280-T40 mutant tau expression plasmids along with CBP to promote tau acetylation. 1, 2, and 5 μg total cell lysates were analyzed by western blotting using anti-ac-K280, total tau (T46), and GAPDH antibodies. […] Scale bar represents 50 μm. FIG. 7D illustrates the results of an experiment where control or HDAC6 siRNA expressing HEK-T40 cells were analyzed by immunoblotting using ac-K280, total tau, HDAC6, and GAPDH antibodies.
The longest human tau isoform (designated Tau-T40) was cloned into pCDNA5/TO vector (Invitrogen) and site-directed mutagenesis (Quikchange kit; Stratagene) was used to create K→Q or K→R mutations at residues K163, K280, K281, K369 as indicated. Indicated plasmids were transfected into either QBI-293 cells or stably expressing HEK-T40 cells using Fugene (Roche). […]

[3] = target: T1, tau-K18 acetyltransferase activity (auto-acetylation) (Homo sapiens, UniProt P10636); experiment: Tau auto-acetylation filter binding assay, kinetic analysis; assay type: biochemical
T1 construct: made in house
Protocol: (§1) Reactions were assembled in 50 μl of reaction buffer containing 50 mM Tris pH 8.0, 100 μM EDTA, and 10% glycerol. Unless specifically noted, reactions contained 25 μM of either WT tau-K18 or tau-K18-2CA mutant. The reactions were initiated by the addition of [^3H]-acetyl-CoA (2.35 Ci mmol^−1, Perkin Elmer) at concentrations ranging from 2.5 μM to 1 mM, incubated at 37° C., and allowed to proceed for 1 hr (unless otherwise noted). Reactions were stopped by the addition of 10 μl of 3 mM CoA, and 25 μl of the reaction was then spotted to a P81 filter paper (Whatman), washed in 10 mM HEPES pH 7.5 three times, and dried using acetone. Incorporated [^3H]-acetyl-CoA was then measured using the Perkin Elmer Tri-Carb 2800TR Liquid Scintillation Analyzer, and the molar amount of acetyl groups incorporated into tau were calculated from a standard curve of the radiolabeled acetyl-CoA.

[4] = test system: tau-K18 acetyltransferase activity (auto-acetylation); experiment: as above; assay type: biochemical; details: tau-K18 proteins containing sequential deletions
Protocol: as §1

tubulin = experiment: MT assembly light-scattering assay; assay type: biochemical; details: 30 μM tubulin, 40 μM tau proteins, 2 mM GTP
Protocol: (§2) Recombinant full-length T40, 4R-tau MT-binding domain K18, or tau fibrils were acetylated by incubation with [^14C]-labeled acetyl-CoA in the presence or absence of CBP. FIG. 1A illustrates that the reaction products were analyzed by SDS-PAGE and Coomassie blue staining followed by overnight radiographic exposure using STORM phosphor-imager software. FIG. 1B depicts the results of an experiment where T40 or K18 proteins were incubated with acetyl-CoA and/or recombinant CBP and reaction products were subjected to immunoblot analysis using a polyclonal anti-tau-specific antibody for MT repeat domain (E10) and an anti-acetyl-lysine antibody. FIG. 1C is a graph depicting the MT assembly activities of K18 proteins as evaluated in light-scattering assays. Tubulin monomers (30 μM) were mixed with 40 μM tau proteins in MT assembly buffer supplemented with 2 mM guanosine triphosphate. MT assembly was determined by monitoring absorbance every minute at 350 nm using a SpectraMax plate reader. […] FIG. 1D is a graph illustrating the results of experiments where Tau proteins (10 μM) were evaluated in fibrillization reactions using 10 μM heparin to induce assembly. […] Samples were analysed by SDS-PAGE and Coomassie staining to monitor fibril formation. FIG. 1F illustrates the results of experiments where four-hour time points from fibrillization reactions were analysed by negative-staining EM. […]

[5] = Heparin-induced tau fibrillization assay quantified by Thioflavin-T binding; assay type: biochemical; details: 10 μM tau proteins, 10 μM heparin, 4-h incubation
Protocol: as §2
Tau K18 protein was either mock acetylated or acetylated in vitro using acetyl-CoA substrate as indicated elsewhere herein. […] Protein concentrations were determined using the bicinchoninic acid protein assay (Pierce) with bovine serum albumin as the standard. Acetylated K18 and mock-treated K18 were assessed by a light-scattering assay as described elsewhere herein. […] The extent of fibrillization was assessed at different time points by ThT fluorescence assay, sedimentation analysis and negative staining EM as described elsewhere herein. For ThT fluorescence assay, ThT diluted in 100 mM glycine buffer (pH 8.5) was added and fluorometric readings were taken at 450 nm (excitation) and 510 nm (emission). […]

T1 sequence (P10636 561-689 limits assumed): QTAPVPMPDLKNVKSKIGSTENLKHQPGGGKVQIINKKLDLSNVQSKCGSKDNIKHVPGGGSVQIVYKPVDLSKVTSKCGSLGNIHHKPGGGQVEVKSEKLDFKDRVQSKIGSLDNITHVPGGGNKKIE

CC1=NN(c2ccc(C(=O)O)cc2)C(=O)/C1=C\c1ccc(-c2cc(C)c(C)cc2[N+](=O)[O-])o1 [C646]
K18-PL acetylation levels [1]: no effect on K18-PL acetylation levels

CCN1C(=O)C=CC1=O [N-ethyl-maleimide]
2N4R-tau or tau-K18 auto-acetylation activity after pretreatment [2]: abrogation of 2N4R-tau or tau-K18 auto-acetylation activity; also recorded: minimal acetyltransferase activity

NC(=O)CI [iodoacetamide]
2N4R-tau or tau-K18 auto-acetylation activity after pretreatment [2]: abrogation of 2N4R-tau or tau-K18 auto-acetylation activity; also recorded: minimal acetyltransferase activity

HDAC6 small interfering RNA: HDAC6 siRNA (Invitrogen) 5′-AAAGUUGGAACUCUCACGGUGCAGC-3′ (SEQ ID NO: 1) (listed as RNA, chemistry not given here)
levels of ac-K280 (HDAC6): increased levels of ac-K280

tau-K18: recombinant tau fragment encompassing all four MT-binding repeats
Kcat [auto] ([3]; auto-acetylation, this study): 8.3e-05 s⁻¹ | Km ([3]; auto-acetylation, this study, read-out: Km AcCoA [auto]): 147 µM | turnover rate Kcat ([3]; saturation plot against acetyl-CoA concentration): 8.3e-05 s⁻¹ | Km [4]: 147 µM | MT assembly (absorbance at 350 nm) (tubulin): promoted tubulin assembly into MTs | fibrillization (ThT) [5]: did not fibrillize during the 4-h incubation period
